Experimental data from publication PMC3666979, “Eliciting Renal Failure in Mosquitoes with a Small-Molecule Inhibitor of Inward-Rectifying Potassium Channels” (PLoS ONE, 2013).
Marks after values point to notes of the source that are not given here.

Legend:
AeKir1 [1] = target: T1, AeKir1 (Aedes aegypti, UniProt L0EQS9); assay: Whole-cell patch clamp of AeKir1 expressed in T-REx-HEK-293 cells; assay type: cell-based; conditions: for IC50: AeKir1-mediated currents, T-REx-HEK-293 cells
Procedure: T-REx-HEK293-AeKir1 cells were voltage clamped in the whole-cell configuration of the patch clamp technique after overnight induction with tetracycline (1 µg/ml). Patch electrodes were pulled from silanized 1.5 mm outer diameter borosilicate microhematocrit tubes using a Narishige PP-830 two-stage puller. Electrode resistance ranged from 2.5 to 3.5 MΩ when filled with the following intracellular solution (in mM): 135 KCl, 2 MgCl2, 1 EGTA, 10 HEPES free acid, 2 Na2ATP (Roche, Indianapolis, IN), pH 7.3, 275 mOsm. The standard bath solution contained (in mM): 135 NaCl, 5 KCl, 2 CaCl2, 1 MgCl2, 5 glucose, 10 HEPES free acid, pH 7.4, 290 mOsm. The high-K^+ bath contained (in mM): 90 NaCl, 50 KCl, 2 CaCl2, 1 MgCl2, 5 glucose, and 10 HEPES-free acid, pH 7.4, 290 mOsmol. Whole-cell currents were recorded under voltage-clamp conditions using an Axopatch 200B amplifier (Molecular Devices, Sunnyvale, CA). Electrical connections to the amplifier were made using Ag/AgCl wires and 3 M KCl/agar bridges. Electrophysiological data were collected at 5 kHz and filtered at 1 kHz. Data acquisition and analysis were performed using pClamp 9.2 software (Axon Instruments). After achieving stable whole-cell currents, VU573 or VU342 was applied intermittently or continuously for 2 to 10 min, followed by application of 2 mM BaCl2. All recordings were made at room temperature (20–23°C).

AeKir1 [2] = target: T1, AeKir1; assay: Thallium (Tl+) flux assay of AeKir1 in T-REx-HEK-293 cells; assay type: cell-based; conditions: AeKir1-mediated Tl+ flux, means ± SEM
Procedure: Compound master antagonist plates were created by serial diluting compounds 1∶3 from 30 mM stocks in 100% DMSO using the BRAVO liquid handler (Agilent Technologies, Santa Clara, CA). Assay daughter plates were created using the ECHO 555 liquid hander (Labcyte, Sunnyvale, CA), transferring 240 nl from the master plate to the daughter plate for each well followed by addition of 40 µl of assay buffer resulting in antagonist compound concentration response curves starting at 200 µM (2× final concentration). […] Cell plates and daughter compound plates were loaded onto a kinetic imaging plate reader (FDSS 6000; Hamamatsu Corporation, Bridgewater, NJ). […] Appropriate baseline readings were taken (10 images at 1 Hz; excitation, 470±20 nm; emission, 540±30 nm) and 20 µl test compounds were added followed by 50 images at 1 Hz additional baseline. Following a 20 minute incubation period, baseline readings were taken for 10 seconds followed by addition of 10 µl of Tl^+ stimulus buffer. […] Data were analyzed using Excel (Microsoft Corp, Redmond, WA). […] The slope of the fluorescence increase beginning 5 s after Tl^+ addition and ending 15 s after Tl^+ addition was calculated. […] Potencies were calculated from fits using a four parameter logistic equation.

[3] = test system: adult female mosquitoes (Aedes aegypti); assay: Mosquito toxicology: incapacitation 24 h after intrathoracic injection (69 nl); assay type: in vivo; conditions: for mosquitoes bloated (retained fluid) / % Incapacitated (flightless or dead): 69 nl of 10 mM in PBS/15% DMSO; for mosquitoes bloated (retained fluid): 24 h; for % Incapacitated (flightless or dead): within 24 hours
Procedure: (§1) Mosquitoes were first anesthetized on ice and then injected with 69 nl of fluid (see below) using a pulled-glass capillary attached to a nanoliter injector (Nanoject II, Drummond Scientific Company, Broomall, PA). The injected fluid was a sodium-based phosphate-buffered saline (Na^+-PBS) containing 15% DMSO and various concentrations of VU573 or VU342 to deliver the doses indicated in Figures 2A, 2C, and S3. The Na^+-PBS consisted of the following in mM: 137 NaCl, 2.7 KCl, 10 Na2HPO4, and 2 KH2PO4 (pH 7.5). After injection, the mosquitoes were placed in a small cage (10 females per cage) within a rearing chamber (28°C, 80% relative humidity, 12∶12 light∶dark) and allowed free access to a solution of 10% sucrose. The mosquitoes were observed 24 h after injection.
(§2) Data were analyzed using Prism 5 for Windows (Graphpad Software). To generate a dose-response curve for VU573, the doses (x-axis) were log transformed and then a non-linear curve was fitted to the data using the ‘log(agonist) vs. response’ algorithm. An ED50 was calculated from this curve. To compare 1) the incapacitating effects among the vehicle, VU573, and VU342 treatments, and 2) the rates of urine excretion among the control, vehicle, VU573, and VU342 treatments, one-way ANOVAs were performed with Newman-Keuls posttests. To compare the incapacitating effects between the vehicle and VU573 within each mosquito species, a paired t-test was used.

[4] = test system: adult female Aedes albopictus; assay: Mosquito toxicology: incapacitation 24 h after injection (69 nl); assay type: in vivo; conditions: 69 nl Na+-PBS with 10 mM
Procedure: as §1, §2
(§3) Supplementary file pone.0064905.s003.tif: Figure S3 Incapacitating effects of VU573 in three species of mosquitoes. Adult female mosquitoes were injected with Na^+- PBS (69 nl) containing the vehicle (15% DMSO) or VU573 (10 mM). ‘% Incapacitated’ refers to the proportion of mosquitoes that are flightless or dead within 24 h after injection. Values are means ± SEM (n = 4 independent trials of 10 mosquitoes). Statistical differences between vehicle and VU573-treated mosquitoes were determined by a paired t-test for each species. […]

[5] = test system: adult female Anopheles gambiae; assay: as above; assay type: in vivo; conditions: 69 nl Na+-PBS with 10 mM
Procedure: as §1, §2, §3

[6] = test system: adult female Culex pipiens; assay: as above; assay type: in vivo; conditions: 69 nl Na+-PBS with 10 mM
Procedure: as §1, §2, §3

[7] = test system: isolated Malpighian tubules; assay: Fluid secretion by isolated Malpighian tubules (Ramsay method); set-up: species or system Aedes aegypti; conditions: 10 µM in peritubular bath, after 2 hours, high-potassium Ringer
Procedure: Fluid secretion rates from isolated Malpighian tubules (Ae. aegypti) were measured in vitro using the method described in [25], which is modified from that of Ramsay. In brief, isolated tubules were bathed in a 50 µl drop of a mosquito Ringer solution with elevated K^+ (see composition below), which was then covered with light mineral oil. A glass hook was used to pull the open proximal end of the tubule into the mineral oil where fluid was secreted. The diameter of the droplet was measured to calculate the secreted volumes.
In one set of tubules, the initial spontaneous rate of fluid secretion was calculated during the first 30 min (control). In another set of tubules, the rates of fluid secretion were determined 2 h after adding one of the following to the peritubular bath: the vehicle (0.05% DMSO), VU573 (10 µM), or VU342 (10 µM). The Ringer solution consisted of the following in mM: 119.4 NaCl, 34 KCl, 25 HEPES, 1.8 NaHCO3, 1.7 CaCl2, and 1.0 MgSO4, pH 7.1.
(§4) Data were analyzed using Prism 5 for Windows (Graphpad Software) and Excel (Microsoft Corp). To compare the rates of fluid secretion among control, vehicle, VU573, and VU342 treatments, a one-way ANOVA was performed with a Newman-Keuls posttest. To compare the Vbl and Rpc values of principal cells between control and treatment periods a paired t-test was performed.

[8] = test system: principal cells of isolated Malpighian tubules; assay: Two-electrode voltage clamp of principal cells in isolated Malpighian tubules; assay type: cell-based, Aedes aegypti; conditions: for Rpc (kΩ) / Vbl (mV): VU573 10 µM or barium 5 mM, means ± SEM
Procedure: The basolateral membrane voltage (Vbl) and input resistance (Rpc) of principal cells were measured in isolated Malpighian tubules using two-electrode voltage clamping, as described previously. In each experiment, a single principal cell near the distal (blind) end of the tubule was impaled with two glass microelectrodes: one measured Vbl and the other injected current (Im). The Rpc of the impaled cell was calculated from current-voltage plots that were generated via voltage clamping (see ref. [25] for details). After recording a steady-state Vbl and Rpc (control) from the impaled cell, either VU573 (10 µM) or BaCl2 (5 mM) was added to the peritubular bath. The resulting Vbl and Rpc (treatment) were measured again upon reaching a new steady-state (usually 1–2 min later).
as §4

[9] = test system: intact mosquitoes (Ae. aegypti); assay: Urine excretion rate of intact mosquitoes after 900 nl HBS injection; assay type: in vivo, Aedes aegypti; conditions: 2 h
Procedure: Urine excretion rates from intact mosquitoes (Ae. aegypti) were measured using a method modified from the laboratory of Hansen. After anesthetizing mosquitoes on ice they were injected as described above with 900 nl of fluid (100 nl/s). The injected fluid was one of two HEPES-buffered saline (HBS) solutions containing 1.8% DMSO with 0.77 mM VU573 or 0.77 mM VU342. Vehicle controls received the respective HBS with DMSO alone. The Na^+-HBS consisted of the following in mM: 146 NaCl, 4.2 N-methyl-D-glucammonium (NMDG)-Cl, and 25 mM HEPES (pH 7.5). The K^+-HBS consisted of the following in mM: 10 mM NaCl, 75 mM KCl, 65.2 mM NMDG-Cl, and 25 mM HEPES (pH 7.5). After injection, mosquitoes were placed immediately in a graduated, packed-cell volume tube (MidSci, St. Louis, MO; 3 mosquitoes per tube) at room temperature. The mosquitoes were removed from the tubes with forceps after 2 h and the excreted urine was centrifuged into the graduated column of the tube for measurement. Uninjected control mosquitoes were handled exactly as above without the injection step. Data were analyzed using Prism 5 for Windows (Graphpad Software). To generate a dose-response curve for VU573, the doses (x-axis) were log transformed and then a non-linear curve was fitted to the data using the ‘log(agonist) vs. response’ algorithm. An ED50 was calculated from this curve. To compare 1) the incapacitating effects among the vehicle, VU573, and VU342 treatments, and 2) the rates of urine excretion among the control, vehicle, VU573, and VU342 treatments, one-way ANOVAs were performed with Newman-Keuls posttests. To compare the incapacitating effects between the vehicle and VU573 within each mosquito species, a paired t-test was used.

[10] = test system: adult female mosquitoes (Ae. aegypti); assay: Mosquito mortality after 900 nl Na+- or K+-PBS injection; assay type: in vivo, Aedes aegypti
Procedure: A similar approach was used to determine the toxicity of VU573 after a stress to hemolymph Na^+ or K^+ homeostasis (Figure 2F). However, in these experiments each mosquito was injected with 900 nl of fluid (100 nl/s) and the mosquitoes were not given access to sucrose. The injected fluid was a Na^+-PBS or K^+-PBS containing 1.1% DMSO and 0.77 mM of VU573. Vehicle controls received the respective PBS with DMSO alone. The K^+-PBS consisted of the following in mM: 2.7 NaCl, 137 KCl, 2 Na2HPO4, and 10 KH2PO4 (pH 7.5).

[11] = dose-response experiment, 24 h after injection
[12] = 10 µM peritubular, change vs control
[13] = 900 nl K+-HBS containing 0.77 mM compound
[14] = 900 nl Na+-HBS containing 0.77 mM compound

T1 sequence (L0EQS9 entry or part of it): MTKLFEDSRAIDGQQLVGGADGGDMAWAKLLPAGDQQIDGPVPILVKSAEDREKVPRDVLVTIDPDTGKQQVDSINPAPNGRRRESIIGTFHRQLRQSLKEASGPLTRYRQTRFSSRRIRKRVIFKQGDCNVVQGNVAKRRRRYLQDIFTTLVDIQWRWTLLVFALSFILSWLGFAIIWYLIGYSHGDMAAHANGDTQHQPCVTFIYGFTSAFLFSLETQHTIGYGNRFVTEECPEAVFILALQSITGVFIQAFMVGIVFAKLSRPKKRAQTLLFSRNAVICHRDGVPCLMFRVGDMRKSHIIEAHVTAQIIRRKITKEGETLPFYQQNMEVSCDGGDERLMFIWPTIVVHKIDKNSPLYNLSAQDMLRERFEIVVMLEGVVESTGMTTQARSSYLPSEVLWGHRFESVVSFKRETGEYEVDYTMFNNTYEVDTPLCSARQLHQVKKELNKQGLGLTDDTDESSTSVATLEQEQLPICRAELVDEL

Row | SMILES | IC50 (AeKir1 [1]) [µM] | mosquitoes bloated (retained fluid) [3] | % Incapacitated (flightless or dead) [3] | rate of fluid secretion [7] | Rpc (kΩ) [8] | Vbl (mV) [8] | rate of urine excretion [9, 13] | rate of urine excretion [9, 14] [nL/min] | other results
1 | Cc1ccc(OCC(O)Cn2c(=N)n(Cc3ccccc3)c3ccccc32)cc1 (centres unmarked) [VU573] | 5.14 ± 1.2 | 10% | ~100% | 0.26 nL/min | 255.3±15.4 ^a kΩ | −52.4±4.5 ^b mV | 0.73 nL/min | 2.14 | IC50 (AeKir1 [2]): 15 µM; proportion of incapacitated mosquitoes that were dead [3, 11]: 7.7%; proportion of incapacitated mosquitoes that were flightless [3, 11]: 92.3%; proportion of incapacitated mosquitoes with greatly distended abdomens (bloated) [3, 11]: 3.6%; ED50 (incapacitated: flightless or dead) ([3]; within 24 h after injection of 69 nl PBS/15% DMSO into hemolymph): 53.6 pmol; incapacitating effect [4]: incapacitates these mosquitoes; incapacitating effect [5]: incapacitates these mosquitoes; incapacitating effect [6]: incapacitates these mosquitoes; hyperpolarization of basolateral membrane voltage (Vbl) [8, 12]: 7.0 mV; increase of input resistance (Rpc) [8, 12]: 5.7 kΩ; mortality compared to vehicle ([10]; 900 nl K+-PBS with 0.77 mM): significantly increases mortality; mortality compared to vehicle ([10]; 900 nl Na+-PBS with 0.77 mM): does not significantly increase mortality; flightlessness ([10]; 900 nl Na+-PBS with 0.77 mM, within 24 hours): renders them flightless
2 | [Ba+2].[Cl-].[Cl-] [Barium, BaCl2, reference compound] | 10 |  |  |  | 322.8±31.0 ^d kΩ | −59.3±3.3 ^c mV |  |  | 
3 | N=c1n(Cc2ccccc2)c2ccccc2n1CC(O)CN1CCOCC1 (centres unmarked) [VU342] | 112 ± 1.1 | none | less than 20% | no effect on the rate of fluid secretion |  |  | unaffected | 5.7 | times less potent than VU573 at inhibiting AeKir1 (AeKir1 [1]; ratio of IC50): 22 times; maximal inhibition of AeKir1 (AeKir1 [1]; requires 300 µM): ~65%
